Where two headings read alike, the source gives them in different places.
Columns and labels:
[1] = system: human or porcine epithelial cells

Compound: Cc1ncc([N+](=O)[O-])n1CCO [Metronidazole]
- Apical fraction (T84 cells; human): 71.3%
- Basal fraction (T84 cells; human): 9.7%
- Intracellular fraction (T84 cells; human): 19.0%
- Apical fraction (IPEC-J2 cells; pig): 84.0%
- Basal fraction (IPEC-J2 cells; pig): 7.1%
- Intracellular fraction (IPEC-J2 cells; pig): 8.9%
- Apical fraction (Caco-2 cells; human): 80.2%
- Basal fraction (Caco-2 cells; human): 12.9%
- Intracellular fraction (Caco-2 cells; human): 12.7%

Compound: CO/C1=C\C(C)=C\[C@@H](C)[C@@H](O)[C@@H](C)C/C(C)=C/C=C/[C@H](OC)[C@@H]([C@@H](C)[C@@H](O)[C@H](C)[C@@]2(O)C[C@@H](O)[C@H](C)[C@@H](C(C)C)O2)OC1=O [Bafilomycin A1]
- Apical fraction (T84 cells): 2.5%
- Basal fraction (T84 cells): 30.5%
- Intracellular fraction (T84 cells): 68.0%
- Apical fraction (IPEC-J2 cells): 0.1%
- Basal fraction (IPEC-J2 cells): 28.1%
- Intracellular fraction (IPEC-J2 cells): 71.8%
- intracellular accumulation [1]: 19.5-77.4 % of the initial dose
- Apical fraction (Caco-2 cells): 0.1%
- Basal fraction (Caco-2 cells): 22.5%
- Intracellular fraction (Caco-2 cells): 77.4%

From patent publication US20220133842A1 (priority 2019, published 2022)
